Test results published in ChEMBL document CHEMBL1201862, “PubChem BioAssay data set” (2004).
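1) Cells in 96-well plates. 2) Compound, 48 h, 5 concentrations. 3) Linear interpolation between surrounding doses. 4) Unreached endpoint = highest concentration. GI50 is the concentration that inhibits growth by half.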 Activity calls are given as the source filed them. Rule as the data show it: active = GI50 up to about 1.1 µM and inactive = higher.

Columns and labels:
Assay in all cases: inhibition of tumour cell growth, NCI panel, 48 h
[1] = system: A498
[2] = system: CAKI-1
[3] = system: EKVX
[4] = system: HCT-116
[5] = system: HCT-15
[6] = system: HOP-62
[7] = system: HT-29
[8] = system: M19-MEL
[9] = system: NCI-H23
[10] = system: OVCAR-5
[11] = system: OVCAR-8
[12] = system: SK-MEL-28
[13] = system: SNB-78
[14] = system: SR
[15] = system: SW-620
[16] = system: U-251
[17] = system: UACC-257
[18] = system: DU-145
[19] = system: MDA-N

For `Cn1ncc2c(Nc3ccc(Cl)cc3)c3ccccc3nc21`, the GI50 [1] was 14.8 µM (inactive), the GI50 [2] was 21.8 µM (inactive) and the GI50 [3] was > 10 µM (inactive). For the same molecule, the GI50 [4] was 12.2 µM (inactive), the GI50 [5] was 15.7 µM and the GI50 [6] was 16.4 µM (inactive). The GI50 [7] was 13.5 µM (inactive), the GI50 [8] was 19.3 µM (inactive) and the GI50 [9] was > 10 µM (inactive). The GI50 [10] was 23.2 µM (inactive), the GI50 [11] was 14.8 µM (inactive) and the GI50 [12] was 15.3 µM (inactive). For the same molecule, the GI50 [13] was 24.4 µM (inactive), the GI50 [14] was 14.9 µM (inactive) and the GI50 [15] was 16.6 µM (inactive). For the same molecule, the GI50 [16] was 15.6 µM (inactive) and the GI50 [17] was 17.3 µM (inactive).

In the case of `O=C1c2ccccc2C(=O)N1CC#CCO`, the GI50 [1] is reported as > 100 µM (inactive), the GI50 [2] is reported as > 100 µM (inactive) and the GI50 [3] is reported as > 100 µM (inactive). The GI50 [4] was > 100 µM (inactive), the GI50 [5] was > 100 µM and the GI50 [6] was > 100 µM (inactive). For the same molecule, the GI50 [7] was > 100 µM (inactive), the GI50 [8] was > 100 µM (inactive) and the GI50 [9] was > 100 µM (inactive). For the same molecule, the GI50 [10] was > 100 µM (inactive), the GI50 [11] was > 100 µM (inactive) and the GI50 [12] was > 100 µM (inactive). For the same molecule, the GI50 [13] was > 100 µM (inactive), the GI50 [14] was > 100 µM (inactive) and the GI50 [15] was > 100 µM (inactive). For the same molecule, the GI50 [16] was > 100 µM (inactive) and the GI50 [17] was > 100 µM (inactive).

In the case of `C#Cc1cccc(N2C(=O)CCC2=O)c1`, the GI50 [1] is reported as 15.6 µM (inactive), the GI50 [2] is reported as 13.6 µM (inactive) and the GI50 [18] is reported as 14.4 µM (inactive). The GI50 [3] was 18.3 µM (inactive), the GI50 [4] was 9.08 µM (inactive) and the GI50 [5] was 22.1 µM. The GI50 [6] was > 10 µM (inactive), the GI50 [7] was 12.1 µM (inactive) and the GI50 [8] was 19.5 µM (inactive). For the same molecule, the GI50 [19] was 14.2 µM (inactive), the GI50 [9] was 14.7 µM (inactive) and the GI50 [10] was 16.7 µM (inactive). For the same molecule, the GI50 [11] was 18.5 µM (inactive), the GI50 [12] was 18.1 µM (inactive) and the GI50 [13] was 18.5 µM (inactive). The GI50 [14] was 1.74 µM (inactive), the GI50 [15] was 5.61 µM (inactive) and the GI50 [16] was 1.67 µM (inactive). The GI50 [17] was 15.6 µM (inactive).

`COc1cc(OC)c(Oc2cccc(OC)c2OC)c(OC)c1` was tested, and the GI50 [1] was > 100 µM (inactive), the GI50 [2] was > 100 µM (inactive) and the GI50 [3] was > 100 µM (inactive). For the same molecule, the GI50 [4] was > 100 µM (inactive), the GI50 [6] was > 100 µM (inactive) and the GI50 [7] was > 100 µM (inactive). For the same molecule, the GI50 [8] was > 100 µM (inactive), the GI50 [9] was > 100 µM (inactive) and the GI50 [10] was > 100 µM (inactive). For the same molecule, the GI50 [11] was > 100 µM (inactive), the GI50 [12] was > 100 µM (inactive) and the GI50 [13] was > 100 µM (inactive). For the same molecule, the GI50 [14] was > 100 µM (inactive), the GI50 [15] was > 100 µM (inactive) and the GI50 [16] was > 100 µM (inactive). For the same molecule, the GI50 [17] was > 100 µM (inactive).

With `COc1ccc(/C=C(\NC(=O)c2ccccc2)c2nc3ccccc3[nH]2)cc1OC` the GI50 [1] was > 100 µM (inactive), the GI50 [2] was > 100 µM (inactive) and the GI50 [3] was > 100 µM (inactive). For the same molecule, the GI50 [4] was > 100 µM (inactive), the GI50 [5] was > 100 µM and the GI50 [6] was > 100 µM (inactive). For the same molecule, the GI50 [7] was > 100 µM (inactive), the GI50 [8] was > 100 µM (inactive) and the GI50 [9] was > 100 µM (inactive). For the same molecule, the GI50 [10] was > 100 µM (inactive), the GI50 [11] was > 100 µM (inactive) and the GI50 [12] was > 100 µM (inactive). For the same molecule, the GI50 [13] was > 100 µM (inactive), the GI50 [14] was > 100 µM (inactive) and the GI50 [15] was > 100 µM (inactive). For the same molecule, the GI50 [16] was > 100 µM (inactive) and the GI50 [17] was > 100 µM (inactive).

With `CCN(CC)CC1CCCCN1CC(=O)N1c2cc(Cl)ccc2NC(=O)CC1C` (stereo not drawn) the GI50 [1] was > 100 µM (inactive), the GI50 [2] was > 100 µM (inactive) and the GI50 [3] was > 100 µM (inactive). For the same molecule, the GI50 [4] was > 100 µM (inactive), the GI50 [5] was > 10 µM and the GI50 [6] was > 100 µM (inactive). The GI50 [8] was > 100 µM (inactive), the GI50 [9] was > 100 µM (inactive) and the GI50 [10] was > 100 µM (inactive). For the same molecule, the GI50 [11] was > 100 µM (inactive), the GI50 [12] was > 100 µM (inactive) and the GI50 [13] was > 100 µM (inactive). For the same molecule, the GI50 [14] was > 100 µM (inactive), the GI50 [15] was > 100 µM (inactive) and the GI50 [16] was > 100 µM (inactive). The GI50 [17] was > 100 µM (inactive).

In the case of `Cn1cnc([N+](=O)[O-])c1Sc1n[nH]c(-c2ccc(Cl)cc2)n1`, the GI50 [1] is reported as 22.4 µM (inactive), the GI50 [2] is reported as 25.1 µM (inactive) and the GI50 [3] is reported as 23.9 µM (inactive). The GI50 [4] was 19.6 µM (inactive), the GI50 [6] was 21.5 µM (inactive) and the GI50 [7] was 19.1 µM (inactive). For the same molecule, the GI50 [8] was 19 µM (inactive), the GI50 [9] was 18.6 µM (inactive) and the GI50 [10] was 23.4 µM (inactive). The GI50 [11] was 16.3 µM (inactive), the GI50 [12] was 15.3 µM (inactive) and the GI50 [13] was 19.8 µM (inactive). The GI50 [14] was 13.1 µM (inactive), the GI50 [15] was 21.7 µM (inactive) and the GI50 [16] was 19.5 µM (inactive). For the same molecule, the GI50 [17] was 17.1 µM (inactive).
